For assay [1], the system named is secreted cytokines TNFα, IL-6 and KC-GRO. Briefly: Secreted cytokines in Lipopolysaccharide-stimulated BV-2 cells (Table 9 does not say which cytokine). Type of assay: cell-based, mouse. As to conditions: Mus musculus, BV-2, 5 h; read-out: EC50.
Another assay has as its system IL-6. The assay can be described thus: IL-6 inhibition in LPS-stimulated human peripheral blood mononuclear cells (HTRF). As to conditions: Homo sapiens, PBMC; for EC50: 22 h; for inhibition at 10 µM: read-out: percentage in parentheses after EC50 >10.
Assay [2] concerns Wnt-responsive Sp5-Luc reporter in SW480 colon carcinoma cells. The assay can be described thus: Screening assay for Wnt activity (Sp5-Luc reporter gene assay). As to conditions: Homo sapiens; for EC50: SW480; for inhibition at 10 µM: SW480, read-out: percent inhibition at 10 μM. A general note: Reporter assays use an easily measured gene product as a stand-in for the process of interest.

Another assay deals with DYRK1A kinase (Homo sapiens, UniProt Q13627). Briefly: DYRK1A kinase activity (Ser/Thr 18 peptide Z-lyte FRET assay).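 Further: kinase activity read as coumarin/fluorescein emission ratio after development step, with unphosphorylated and phosphorylated peptide forms setting 0% and 100% controls, values from dose-response curves.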 In kind it is biochemical. To be noted: recombinant DYRK1A, 30 μM ATP, one hour at room temperature.
The target in another assay is GSK3β kinase (Homo sapiens, UniProt P49841). Briefly: GSK3β kinase activity (Ser/Thr 09 peptide Z-lyte FRET assay). Type of assay: biochemical. As to conditions: recombinant kinase, 46 μM ATP, one hour at room temperature; read-out: EC50.
Sequence of GSK3β kinase (P49841 whole entry): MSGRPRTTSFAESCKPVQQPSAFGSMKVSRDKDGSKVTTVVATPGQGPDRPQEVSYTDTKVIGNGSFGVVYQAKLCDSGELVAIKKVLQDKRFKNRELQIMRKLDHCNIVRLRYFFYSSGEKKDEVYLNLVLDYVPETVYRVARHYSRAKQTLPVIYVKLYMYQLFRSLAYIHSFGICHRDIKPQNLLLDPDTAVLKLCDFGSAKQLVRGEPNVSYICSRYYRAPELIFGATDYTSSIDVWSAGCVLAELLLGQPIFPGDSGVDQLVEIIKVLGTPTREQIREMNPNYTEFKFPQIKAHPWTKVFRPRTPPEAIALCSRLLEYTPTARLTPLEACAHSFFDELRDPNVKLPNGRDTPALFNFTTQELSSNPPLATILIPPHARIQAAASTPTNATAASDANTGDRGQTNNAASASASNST
Assay [3] deals with α-smooth muscle actin (aSMA) positive LL29 cells. The assay can be described thus: Inhibition of the fibrotic process: αSMA staining in TGF-β1 treated LL29 fibroblasts from IPF patients. As to conditions: Homo sapiens, Fibroblast; for EC50: 96 h; for inhibition at 10 µM: read-out: percentage in parentheses after EC50 >10.
Assay [4] concerns Tau phosphorylation at Ser396 (pSer396). Briefly: Tau phosphorylation at Ser396 (pSer396) in SH-SY5Y cells, ELISA / western blot.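 Further: decrease in pSer396 Tau measured in lysates of treated cells by colorimetric ELISA or chemiluminescent western blot, same pSer396 antibody for both.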 Type of assay: cell-based, human. To be noted: Homo sapiens; SH-SY5Y cells, overnight (16-18 h); read-out: pSer396 Tau EC50. A general note: In an ELISA, binding on a coated surface is turned into a signal by an enzyme label.
Method: Two days before treatment, cells were seeded onto 96 well plates at 5×10^4 cells/well.
The above synthesized compounds were screened using the cell assay procedure to assess decrease Tau phosphorylation at Ser396 (pSer396) described below.
Cells were lysed with RIPA buffer complemented with phosphatase and protease inhibitors then lysates were spun down at 12,000 g for 10 min to remove any cellular debris.
Assay [5] concerns SW480 colon carcinoma cells. The assay can be described thus: Cell viability assay (CellTiter-Glo). To be noted: Homo sapiens; for EC50: SW480, 96 h; for inhibition at 10 µM: SW480, read-out: percent inhibition at 10 μM. In general terms: In ATP-based viability assays light output follows the ATP content of the culture.

Method for GSK3β kinase: Each compound is dissolved in DMSO as a 10 mM stock and used to prepare compound source plates. Serial dilution (1:3, 11-point dose-response curves from 10 μM to 0.0003 μM) and compound transfer was performed using the ECHO 550 (Labcyte, Sunnyvale, Calif.) into 1536-well black-walled round bottom plates (Corning).
This is a non-radioactive assay using fluorescence resonance energy transfer (FRET) between coumarin and fluorescein to detect kinase activity which is represented as ratio of coumarin emission/fluorescein emission.
The mixture is allowed to incubate with the representative compounds for one hour at room temperature. All reactions were performed in duplicate. Unphosphorylated (“0% Control”) and phosphorylated (“100% control”) forms of Ser/Thr 18 serve as control reactions.
After incubation, diluted Development Buffer is added to the reaction and allowed to further incubate for one hour at room temperature.
Dose-response curves are generated and inhibitory concentration (IC50) values are calculated using non-linear regression curve fit in the Dotmatics' Studies Software (Bishops Stortford, UK).

For orientation: EC50 means the midpoint of the concentration-response curve. Turning to `Cn1cc(-c2cc3cc(NC(=O)[C@H]4CCCN4)ncc3cn2)cn1` [Compound 3689, (R)—N-(6-(1-Methyl-1H-pyrazol-4-yl)-2,7-naphthyridin-3-yl)pyrrolidine-2-carboxamide], the EC50 in assay [1] is > 10000 nM; with IL-6, > 10000 nM; in assay [2] it was 370 nM; on DYRK1A kinase it was 71 nM; on GSK3β kinase it was 8 nM; in assay [3] it was 893 nM. Besides, the figures for the 50% effective concentration (EC50) in assay [4] and in assay [5] were 156 nM and > 10000 nM, respectively. Besides, the inhibition at 10 µM in the assay on IL-6 is 7.6%; in assay [5], 28.8%.

Turning to `Cn1cncc1-c1ccc2cnc(NC(=O)c3ccc4c(c3)CNC4)cc2n1` [Compound 477, N-(2-(1-Methyl-1H-imidazol-5-yl)-1,6-naphthyridin-7-yl)isoindoline-5-carboxamide], the half-maximal effective concentration (EC50) in assay [1] came out at 4800 nM; in the assay with IL-6, 9830 nM; in assay [2], 962 nM; at DYRK1A kinase, 1 nM; on GSK3β kinase, 84 nM; in assay [3] it was 632 nM. Moreover, the EC50 in assay [4] worked out at 10000 nM; in assay [5], 1690 nM.

On to `Cn1cncc1-c1cc2cc(NC(=O)C3CCC(F)(F)CC3)ncc2cn1` [Compound 4027, 4,4-Difluoro-N-(6-(1-methyl-1H-imidazol-5-yl)-2,7-naphthyridin-3-yl) cyclohexane-1-carboxamide], for which the half-maximal effective concentration (EC50) in assay [1] was ≥ 10000 nM; in the assay on IL-6, > 10000 nM; in assay [2], > 10000 nM; at DYRK1A kinase, 21 nM; at GSK3β kinase, 72 nM; in assay [3], > 10000 nM. In addition, the values for the EC50 in assay [4] and in assay [5] were 219 nM and > 10000 nM, respectively. For the same compound, the inhibition at 10 µM with IL-6 was 4%; in assay [2], 17.5%; in assay [3] it was 33.9%; in assay [5], 26.3%.

For `Cn1cc(-c2ccc3cnc(NC(=O)[C@H]4CC[C@H](NCCF)CC4)cc3n2)cn1` [Compound 4535, trans-4-((2-Fluoroethyl)amino)-N-(2-(1-methyl-1H-pyrazol-4-yl)-1,6-naphthyridin-7-yl) cyclohexane-1-carboxamide], the EC50 is 162 nM in assay [1]; 2860 nM with IL-6; 346 nM in assay [2]; 9 nM on DYRK1A kinase; 188 nM on GSK3β kinase; > 10000 nM in assay [3]. The EC50 in assay [4] turned out to be 925 nM; in assay [5] it was 4050 nM. In addition, in assay [3], the inhibition at 10 µM amounted to 25%.

As for `CN(CC(=O)Nc1cc2cc(-c3cnn(C)c3)ncc2cn1)C1CCC1` [Compound 3683, 2-(Cyclobutyl(methyl)amino)-N-(6-(1-methyl-1H-pyrazol-4-yl)-2,7-naphthyridin-3-yl)acetamide], the EC50 in assay [1] is > 10000 nM; in the assay with IL-6 it was > 10000 nM; in assay [2], 603 nM; on DYRK1A kinase, 8 nM; at GSK3β kinase, 10 nM; in assay [3], 597 nM. Moreover, the EC50 in assay [4] is 179 nM; in assay [5], > 10000 nM. In addition, the inhibition at 10 µM is 4.6% in the assay on IL-6 and 38.8% in assay [5].

For the compound `Cn1cc(-c2ccc3cnc(NC(=O)[C@H]4CC[C@H](N5CCOCC5)CC4)cc3n2)cn1` [Compound 5, trans-N-(2-(1-methyl-1H-pyrazol-4-yl)-1,6-naphthyridin-7-yl)-4-morpholinocyclohexane-1-carboxamide], the concentration for a half-maximal effect (EC50) is 400 nM in assay [1]; 3300 nM with IL-6; > 10000 nM in assay [2]; 7 nM at DYRK1A kinase; 138 nM at GSK3β kinase; > 10000 nM in assay [3]. For the same compound, the 50% effective concentration (EC50) in assay [4] was 2000 nM; in assay [5], > 10000 nM. Further, the inhibition at 10 µM in assay [2] stood at 47.9%; in assay [3], 9%; in assay [5], 39.9%.

For the compound `Cc1cn2c(n1)CN(C(=O)Nc1ncc3ccc(-c4cnc(C)o4)cc3n1)CC2` [Compound 1491, 2-Methyl-N-(7-(2-methyloxazol-5-yl)quinazolin-2-yl)-5,6-dihydroimidazo [1,2-a]pyrazine-7(8H)-carboxamide], the EC50 in assay [1] was 3900 nM; in the assay with IL-6, > 10000 nM; in assay [2] it was > 10000 nM; on DYRK1A kinase, 39 nM; at GSK3β kinase, 166 nM; in assay [3], > 10000 nM. Moreover, the 50% effective concentration (EC50) in assay [4] stood at 3700 nM; in assay [5], 8860 nM. Besides, the inhibition at 10 µM with IL-6 worked out at 2.6%; in assay [2], 25.2%; in assay [3] it was 6.1%.

As for `Cn1cc(-c2ccc3cnc(NC(=O)CN4CCOCC4)nc3c2)cn1` [Compound 985, N-(7-(1-Methyl-1H-pyrazol-4-yl)quinazolin-2-yl)-2-morpholinoacetamide], the EC50 is > 10000 nM in assay [1]; > 10000 nM in the assay with IL-6; > 10000 nM in assay [2]; 126 nM at DYRK1A kinase; 35 nM on GSK3β kinase; > 10000 nM in assay [3]. For the same compound, the values for the EC50 in assay [4] and in assay [5] were 5400 nM and > 10000 nM, respectively. In addition, the inhibition at 10 µM in the assay on IL-6 is 3.2%; in assay [2], 5.5%; in assay [3] it was 51.7%; in assay [5], 9.6%.

On to `Cn1cc(-c2ccc3cnc(NC(=O)C4CCN(Cc5ncco5)CC4)nc3c2)cn1` [Compound 1003, N-(7-(1-Methyl-1H-pyrazol-4-yl)quinazolin-2-yl)-1-(oxazol-2-ylmethyl) piperidine-4-carboxamide], for which the 50% effective concentration (EC50) was 1490 nM in assay [1]; > 10000 nM in the assay with IL-6; > 10000 nM in assay [2]; 25 nM at DYRK1A kinase; 262 nM on GSK3β kinase; > 10000 nM in assay [3]. Besides, the 50% effective concentration (EC50) in assay [4] is 4500 nM; in assay [5], > 10000 nM. In addition, the inhibition at 10 µM was found to be 6.6% with IL-6, 19.3% in assay [2], 4.8% in assay [3] and 18.5% in assay [5].

As for `CN1CCN(c2cc(C(=O)Nc3ncc4ccc(-c5cncs5)cc4n3)ccn2)CC1` [Compound 1536, 2-(4-Methylpiperazin-1-yl)-N-(7-(thiazol-5-yl)quinazolin-2-yl)isonicotinamide], the EC50 in assay [1] is 336 nM; with IL-6 it was > 10000 nM; in assay [2], 663 nM; at DYRK1A kinase, 4 nM; at GSK3β kinase, 207 nM; in assay [3], 1130 nM. Besides, the EC50 in assay [4] amounted to 1180 nM; in assay [5], 1040 nM. Besides, the inhibition at 10 µM in the assay with IL-6 is 49.6%.

`CN(CC(=O)Nc1ncc2ccc(-c3cnn(C)c3)cc2n1)C1CCC1` [Compound 963, 2-(Cyclobutyl(methyl)amino)-N-(7-(1-methyl-1H-pyrazol-4-yl)quinazolin-2-yl)acetamide]: the concentration giving a half-maximal response (EC50) in assay [1] was 354 nM; in the assay with IL-6 it was > 10000 nM; in assay [2] it was > 10000 nM; on DYRK1A kinase it was 45 nM; on GSK3β kinase, 45 nM; in assay [3], 1570 nM. Besides, the EC50 in assay [4] was 1620 nM; in assay [5] it was > 10000 nM. Moreover, the inhibition at 10 µM was 5.4% with IL-6, 11.8% in assay [2] and 27.9% in assay [5].

As for `CC(C)CN1CCC(C(=O)Nc2ncc3ccc(-c4cnn(C)c4)cc3n2)CC1` [Compound 923, 1-isobutyl-N-(7-(1-methyl-1H-pyrazol-4-yl)quinazolin-2-yl)piperidine-4-carboxamide], the EC50 in assay [1] was 1070 nM; with IL-6, > 10000 nM; in assay [2] it was > 10000 nM; on DYRK1A kinase, 44 nM; on GSK3β kinase it was 204 nM; in assay [3], 2720 nM. Also, the results for the EC50 in assay [4] and in assay [5] were 1300 nM and > 10000 nM, respectively. The figures for the inhibition at 10 µM (in the assay on IL-6; in assay [2]; in assay [5]) were 10.5%, 34.8% and 33.9%, respectively.

Take `O=C(Nc1ncc2ccc(-c3cncs3)cc2n1)C1CCN(C(=O)CN2CCCC2)CC1` [Compound 1524, 1-(2-(Pyrrolidin-1-yl)acetyl)-N-(7-(thiazol-5-yl)quinazolin-2-yl)piperidine-4-carboxamide]: the EC50 in assay [1] was 3600 nM; with IL-6, > 10000 nM; in assay [2], > 10000 nM; on DYRK1A kinase, 7 nM; at GSK3β kinase, 407 nM; in assay [3], 4780 nM. The EC50 in assay [4] and in assay [5] was > 10000 nM throughout. Also, the inhibition at 10 µM in the assay on IL-6 is 50%; in assay [2], 13.4%; in assay [5], 18.1%.

Take `CC(C)CN1CCC(CC(=O)Nc2cc3nc(-c4cnn(C)c4)ccc3cn2)C1` (stereo not shown) [Compound 122, 2-(1-Isobutylpyrrolidin-3-yl)-N-(2-(1-methyl-1H-pyrazol-4-yl)-1,6-naphthyridin-7-yl)acetamide]: the EC50 in assay [1] worked out at 590 nM; in the assay with IL-6, 3170 nM; in assay [2], 2540 nM; at DYRK1A kinase, 16 nM; on GSK3β kinase, 70 nM; in assay [3], 4020 nM. Also, the results for the EC50 in assay [4] and in assay [5] were 481 nM and 3110 nM, respectively.
